Literature values as cited in patent US20050070514A1, “Therapies for treating respiratory diseases” (priority 2001, published 2005).

Conditions: developed as an antidepressant

## COc1ccc(C2CNC(=O)C2)cc1OC1CCCC1 (stereo not shown) [rolipram]
  side effects in clinical studies: has psychotropic activity and produces gastrointestinal effects, e.g., pyrosis, nausea and emesis
